Laboratory results as given in patent US7579356B2, “Thia-tetraazaacenaphthylene kinase inhibitors” (Janssen Pharmaceutica NV, priority 2005, dated 2009).

Columns and labels:
EGFR = target: T1, EGFR (Homo sapiens, UniProt P00533); assay: EGFR Kinase Assay; assay type: biochemical; details: for IC50: GST-EGFR, ATP 5 μM
T1 construct: The intracellular portion of EGFR started at nucleotide 2189 (corresponding to amino acid 667) and ended at the termination codon; made in house; host or cells: Sf9 insect cells (baculovirus)
T1 sequence (P00533 669-1210 limits assumed): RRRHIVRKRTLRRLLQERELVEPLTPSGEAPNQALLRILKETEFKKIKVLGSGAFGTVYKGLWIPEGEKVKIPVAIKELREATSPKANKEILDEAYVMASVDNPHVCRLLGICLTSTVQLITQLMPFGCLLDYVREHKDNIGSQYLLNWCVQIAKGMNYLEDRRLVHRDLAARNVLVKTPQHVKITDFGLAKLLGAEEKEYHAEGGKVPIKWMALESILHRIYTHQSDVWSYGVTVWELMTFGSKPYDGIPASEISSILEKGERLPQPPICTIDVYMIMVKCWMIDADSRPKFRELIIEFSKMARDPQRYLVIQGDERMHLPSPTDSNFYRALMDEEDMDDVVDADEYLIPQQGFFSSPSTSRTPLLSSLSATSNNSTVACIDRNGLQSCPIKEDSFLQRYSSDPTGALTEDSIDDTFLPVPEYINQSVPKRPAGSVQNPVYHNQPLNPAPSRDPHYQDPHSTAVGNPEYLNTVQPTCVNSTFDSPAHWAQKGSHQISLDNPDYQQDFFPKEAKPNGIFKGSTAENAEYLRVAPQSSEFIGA
Source text: The EGFR kinase used was a fusion of Glutathione-S-Transferase (GST) and a PCR amplified intracellular portion of EGFR (Accession Number NM_005228). The intracellular portion of EGFR started at nucleotide 2189 (corresponding to amino acid 667) and ended at the termination codon. The portion was PCR amplified with primers that added the lambda attB sequences to each end, recombined into an entry vector, then into a GST destination vector (as described in Gateway Technologies Manual by Invitrogen Corporation, Carlsbad, Calif.).
The destination vector was recombined in the DH10BAC strain of bacteria to produce a bacmid. The bacmid was transfected into Sf 9 cells and the supernatant containing the baculovirus was collected. The GSTEGFR protein was purified using large cultures of Sf 9 cells infected with stock virus. After an appropriate period of time, the cells were collected and lysed. The GSTEGFR was then purified from the lysate on Glutathione-Sepharose columns (as described by Amersham Biosciences, Buckinghamshire, United Kingdom).
The EGFR substrate was prepared by biotinylating polyGluTyr (128 mg) (Sigma, St. Louis, Mo.) in a 1×PBS buffer incubated together with a 12-fold molar excess of Sulfo-NHS-LC-Biotin on ice for at least 2 hrs. The free biotin was separated from the biotinylated polyGluTyr on a gel filtration column.
A mixture of a 10× kinase buffer (500 mM Tris at pH 8.0, 100 mM Magnesium Chloride and 1 mM Sodium Vanadate), DTT (1 mM final from 500 mM stock), ATP (5 μM final from 10 mM stock), biotinylated polyGluTyr (10 μg/μL stock), γ-^33P ATP (10 μCl/μL stock) and water was added to each well (for a total of 90 μL/well) of a Streptavidin Flashplate (Perkin Elmer, Wellesley, Mass.).
Test compound in 100% DMSO (2 μL) was added to the appropriate wells. Diluted GSTEGFR (1:300 dilution in 50 mM Tris at pH 8.0 and 0.1% bovine serum albumin) (10 μL) was added to the wells to initiate the reactions.
The plates were incubated at 30° C. for 1 hr with shaking. The reacted contents were removed and the plates were sequentially washed three times with a 1×PBS stop buffer (300 μL without Magnesium and Calcium) and 100 mM EDTA. After the final wash, the same stop buffer (200 μL) was added to the wells. The plates were then sealed and read on the TopCount scintillation counter.
Test compounds were assayed in triplicate at 16 concentrations at half-log dilutions starting at 200 uM. A maximum and minimum signal for the assay was determined on each plate. The percent inhibition of a test compound was calculated according to the formula: […]
For a series of test concentrations, the IC50 was derived by graphing percent inhibition against the log of the concentrations tested for a given compound. For those compounds without an IC50, the inhibition values in percent are shown at a test concentration of 2 μM. For compounds with multiple values, each value represents a separate assay result.

HER-2 = target: T2, HER-2 (Homo sapiens, UniProt P04626); assay: HER-2 Kinase Assay; assay type: biochemical; details: value in parentheses
T2 construct: His6 with thrombin site (N); purchased Proqinase (Freiburg, Germany)
T2 sequence (P04626 679-1255): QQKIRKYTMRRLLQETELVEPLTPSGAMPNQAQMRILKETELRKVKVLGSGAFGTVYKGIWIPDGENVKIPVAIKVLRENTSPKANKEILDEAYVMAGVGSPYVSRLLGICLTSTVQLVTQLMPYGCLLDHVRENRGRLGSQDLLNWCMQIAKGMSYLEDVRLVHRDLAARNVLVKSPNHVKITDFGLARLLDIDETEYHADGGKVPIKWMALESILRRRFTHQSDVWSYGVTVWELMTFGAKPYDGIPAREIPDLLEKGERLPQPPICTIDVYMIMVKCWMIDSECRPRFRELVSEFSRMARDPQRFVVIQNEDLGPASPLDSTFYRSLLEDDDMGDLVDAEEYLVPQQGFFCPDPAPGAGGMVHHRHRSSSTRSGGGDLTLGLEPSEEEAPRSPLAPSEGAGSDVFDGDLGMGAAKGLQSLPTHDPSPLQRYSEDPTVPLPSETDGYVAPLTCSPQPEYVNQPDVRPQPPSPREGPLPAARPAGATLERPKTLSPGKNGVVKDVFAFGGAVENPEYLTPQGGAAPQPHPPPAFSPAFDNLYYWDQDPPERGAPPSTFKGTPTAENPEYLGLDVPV
Experimental: The HER-2 kinase used was purified at Proqinase (Freiburg, Germany) from a construct that consisted of a fusion of GST (Glutathione-S-Transferase), HIS6-Thrombin and the nucleotides encoding amino acids 679 to 1255 of HER-2 (Accession Number M11730).
A mixture of a 10× kinase reaction buffer (600 mM Hepes at pH 7.5, 30 mM Magnesium Chloride, 0.03 mM Sodium Vanadate and 500 μg/mL PEG 20,000), DTT (1.2 mM final from a 10 mM stock), APT (1 μM from a 10 mM stock), biotinylated polyGluTyr (1.5 ng/μL final from stock of 1 μg/μL) prepared by Upstate Biotechnologies, Lake Placid, N.Y.), Manganese Chloride (3 mM final from a 1 M stock), γ-^33P-ATP (10 μCl/μL stock) and water (70 μL/well) was added to each well of a Streptavidin Flashplate (Cat. # SMP103, NEN, Boston, Mass.).
Test compound stock (1 μL) was added to the appropriate wells. Diluted GSTHER2 kinase (6.7 ng/μL diluted into 50 mM Tris-HCl at pH 8.0 and 0.1% bovine serum albumin) (30 μL) was added (total volume of 200 ng/well) to initiate the reactions.
The reaction plates were incubated at 30° C. for 1 hr. The reaction was terminated by aspirating the reaction mixture from the plate wells and washing the wells three times with a 1×PBS stop buffer (300 μL) and 100 mM EDTA. After the final wash, the same stop buffer (200 μL) was again added to the wells. The plates were then sealed and read on the TopCount scintillation counter.
The Her-2 inhibition values were derived according to the procedure described in Example 164 and are shown as percent in Table 4 at a test concentration of 1 μM. For those compounds with an IC50, the IC50 value in μM is shown in parentheses. For compounds with multiple test values, each value represents a separate assay result.

Compound | IC50 (EGFR) [nM] | IC50 (HER-2) [nM] | inhibition at 2 µM (EGFR; test concentration of 2 μM, compounds without an IC50, read-out: EGFR inhibition in percent) [%]
O=C(Nc1ccc(CN2CCCCC2)cc1)c1sc2ncnc3c2c1NC(=O)N3c1ccc(Oc2cccc(F)c2)c(Cl)c1 [Cpd 160, 5-[3-chloro-4-(3-fluoro-phenoxy)-phenyl]-4-oxo-4,5-dihydro-3H-1-thia-3,5,6,8-tetraaza-acenaphthylene-2-carboxylic acid (4-piperidin-1-ylmethyl-phenyl)-amide] | 23 | 155 | –
COc1cc(NC(=O)c2sc3ncnc4c3c2NC(=O)N4c2ccc(Oc3cccc(F)c3)c(Cl)c2)ccc1OCCN1CCCCC1 [Cpd 161, 5-[3-chloro-4-(3-fluoro-phenoxy)-phenyl]-4-oxo-4,5-dihydro-3H-1-thia-3,5,6,8-tetraaza-acenaphthylene-2-carboxylic acid [3-methoxy-4-(2-piperidin-1-yl-ethoxy)-phenyl]-amide] | 23 | 699 | –
O=C(Nc1ccc(CN2CCOCC2)cc1)c1sc2ncnc3c2c1NC(=O)N3c1ccc(Oc2cccc(F)c2)c(Cl)c1 [Cpd 162, 5-[3-chloro-4-(3-fluoro-phenoxy)-phenyl]-4-oxo-4,5-dihydro-3H-1-thia-3,5,6,8-tetraaza-acenaphthylene-2-carboxylic acid (4-morpholin-4-ylmethyl-phenyl)-amide] | 26 | 82 | –
O=C(Nc1ccc(C(O)CN2CCOCC2)cc1)c1sc2ncnc3c2c1NC(=O)N3c1ccc(Oc2ccccc2)cc1 (centres unmarked) [Cpd 174, 4-oxo-5-(4-phenoxy-phenyl)-4,5-dihydro-3H-1-thia-3,5,6,8-tetraaza-acenaphthylene-2-carboxylic acid [4-(1-hydroxy-2-morpholin-4-yl-ethyl)-phenyl]-amide] | 18 | 818 | –
CN1CCC(NC(=O)c2sc3ncnc4c3c2NC(=O)N4c2ccc3c(cnn3Cc3cccc(F)c3)c2)CC1 [Cpd 177, 5-[1-(3-fluoro-benzyl)-1H-indazol-5-yl]-4-oxo-4,5-dihydro-3H-1-thia-3,5,6,8-tetraaza-acenaphthylene-2-carboxylic acid (1-methyl-piperidin-4-yl)-amide] | 75 | 1500 | –
CCOC(=O)c1sc2ncnc3c2c1NC(=O)N3C(C)c1ccc(Br)cc1 (centres unmarked) [Cpd 179, 5-[1-(4-bromo-phenyl)-ethyl]-4-oxo-4,5-dihydro-3H-1-thia-3,5,6,8-tetraaza-acenaphthylene-2-carboxylic acid ethyl ester] | – | > 100000 | 0.7
COc1ccc(N2C(=O)Nc3c(C(=O)Nc4ccc(CN5CCCCC5)cc4)sc4ncnc2c34)cc1Br [Cpd 182, 5-(3-bromo-4-methoxy-phenyl)-4-oxo-4,5-dihydro-3H-1-thia-3,5,6,8-tetraaza-acenaphthylene-2-carboxylic acid (4-piperidin-1-ylmethyl-phenyl)-amide] | 880 | 1680 | –
CN1CCC(NC(=O)c2sc3ncnc4c3c2NC(=O)N4c2ccc(Sc3ccccc3)cc2)CC1 [Cpd 191, 4-oxo-5-(4-phenylsulfanyl-phenyl)-4,5-dihydro-3H-1-thia-3,5,6,8-tetraaza-acenaphthylene-2-carboxylic acid (1-methyl-piperidin-4-yl)-amide] | 18 | 62 | –
O=C(Nc1ccc(CN2CCCCC2)cc1)c1sc2ncnc3c2c1NC(=O)N3c1ccc2nc(Cc3cccc(F)c3)[nH]c2c1 [Cpd 192, 5-[2-(3-fluoro-benzyl)-3H-benzoimidazol-5-yl]-4-oxo-4,5-dihydro-3H-1-thia-3,5,6,8-tetraaza-acenaphthylene-2-carboxylic acid (4-piperidin-1-ylmethyl-phenyl)-amide] | 410 | > 1000 | –

Results, then the compound that gave them:

IC50 (EGFR) [nM] | IC50 (HER-2) [nM] | inhibition at 2 µM (EGFR; test concentration of 2 μM, compounds without an IC50, read-out: EGFR inhibition in percent) [%] | Compound
95 | 112 | – | O=C(Nc1ccc(CN2CCOCC2)cc1)c1sc2ncnc3c2c1NC(=O)N3c1ccc(OCc2ccccn2)c(Br)c1 [Cpd 180, 5-[3-bromo-4-(pyridin-2-ylmethoxy)-phenyl]-4-oxo-4,5-dihydro-3H-1-thia-3,5,6,8-tetraaza-acenaphthylene-2-carboxylic acid (4-morpholin-4-ylmethyl-phenyl)-amide]
887 | 2190 | – | COc1ccc(N2C(=O)Nc3c(C(=O)Nc4ccc(CN5CCOCC5)cc4)sc4ncnc2c34)cc1Br [Cpd 181, 5-(3-bromo-4-methoxy-phenyl)-4-oxo-4,5-dihydro-3H-1-thia-3,5,6,8-tetraaza-acenaphthylene-2-carboxylic acid (4-morpholin-4-ylmethyl-phenyl)-amide]
420 | 980 | – | COc1ccc(N2C(=O)Nc3c(C(=O)Nc4ccc(CN5CCOCC5)c(OC)c4)sc4ncnc2c34)cc1Br [Cpd 183, 5-(3-bromo-4-methoxy-phenyl)-4-oxo-4,5-dihydro-3H-1-thia-3,5,6,8-tetraaza-acenaphthylene-2-carboxylic acid (3-methoxy-4-morpholin-4-ylmethyl-phenyl)-amide]
17 | 79 | – | COc1cc(NC(=O)c2sc3ncnc4c3c2NC(=O)N4c2cccc(Br)c2)ccc1CN1CCOCC1 [Cpd 184, 5-(3-bromo-phenyl)-4-oxo-4,5-dihydro-3H-1-thia-3,5,6,8-tetraaza-acenaphthylene-2-carboxylic acid (3-methoxy-4-morpholin-4-ylmethyl-phenyl)-amide]
121 | 248 | – | O=C(Nc1ccc(CN2CCOCC2)cc1)c1sc2ncnc3c2c1NC(=O)N3c1ccc(Oc2ccccc2)c(Br)c1 [Cpd 187, 5-(3-bromo-4-phenoxy-phenyl)-4-oxo-4,5-dihydro-3H-1-thia-3,5,6,8-tetraaza-acenaphthylene-2-carboxylic acid (4-morpholin-4-ylmethyl-phenyl)-amide]
49 | 83 | – | O=C(Nc1ccc(CN2CCCCC2)cc1)c1sc2ncnc3c2c1NC(=O)N3c1ccc(Oc2ccccc2)c(Br)c1 [Cpd 188, 5-(3-bromo-4-phenoxy-phenyl)-4-oxo-4,5-dihydro-3H-1-thia-3,5,6,8-tetraaza-acenaphthylene-2-carboxylic acid (4-piperidin-1-ylmethyl-phenyl)-amide]
83 | 72 | – | COc1cc(NC(=O)c2sc3ncnc4c3c2NC(=O)N4c2ccc(Oc3ccccc3)c(Br)c2)ccc1CN1CCOCC1 [Cpd 189, 5-(3-bromo-4-phenoxy-phenyl)-4-oxo-4,5-dihydro-3H-1-thia-3,5,6,8-tetraaza-acenaphthylene-2-carboxylic acid (3-methoxy-4-morpholin-4-ylmethyl-phenyl)-amide]
